The structures appear in SMILES notation.

Experimental findings from patent US8952034B2, “Fused heterocyclic compounds as ion channel modulators” (Gilead Sciences, Inc., priority 2009, dated 2015) are described below.

wild-type human cardiac sodium channel, hNav1.5, sequence (Q14524 whole entry): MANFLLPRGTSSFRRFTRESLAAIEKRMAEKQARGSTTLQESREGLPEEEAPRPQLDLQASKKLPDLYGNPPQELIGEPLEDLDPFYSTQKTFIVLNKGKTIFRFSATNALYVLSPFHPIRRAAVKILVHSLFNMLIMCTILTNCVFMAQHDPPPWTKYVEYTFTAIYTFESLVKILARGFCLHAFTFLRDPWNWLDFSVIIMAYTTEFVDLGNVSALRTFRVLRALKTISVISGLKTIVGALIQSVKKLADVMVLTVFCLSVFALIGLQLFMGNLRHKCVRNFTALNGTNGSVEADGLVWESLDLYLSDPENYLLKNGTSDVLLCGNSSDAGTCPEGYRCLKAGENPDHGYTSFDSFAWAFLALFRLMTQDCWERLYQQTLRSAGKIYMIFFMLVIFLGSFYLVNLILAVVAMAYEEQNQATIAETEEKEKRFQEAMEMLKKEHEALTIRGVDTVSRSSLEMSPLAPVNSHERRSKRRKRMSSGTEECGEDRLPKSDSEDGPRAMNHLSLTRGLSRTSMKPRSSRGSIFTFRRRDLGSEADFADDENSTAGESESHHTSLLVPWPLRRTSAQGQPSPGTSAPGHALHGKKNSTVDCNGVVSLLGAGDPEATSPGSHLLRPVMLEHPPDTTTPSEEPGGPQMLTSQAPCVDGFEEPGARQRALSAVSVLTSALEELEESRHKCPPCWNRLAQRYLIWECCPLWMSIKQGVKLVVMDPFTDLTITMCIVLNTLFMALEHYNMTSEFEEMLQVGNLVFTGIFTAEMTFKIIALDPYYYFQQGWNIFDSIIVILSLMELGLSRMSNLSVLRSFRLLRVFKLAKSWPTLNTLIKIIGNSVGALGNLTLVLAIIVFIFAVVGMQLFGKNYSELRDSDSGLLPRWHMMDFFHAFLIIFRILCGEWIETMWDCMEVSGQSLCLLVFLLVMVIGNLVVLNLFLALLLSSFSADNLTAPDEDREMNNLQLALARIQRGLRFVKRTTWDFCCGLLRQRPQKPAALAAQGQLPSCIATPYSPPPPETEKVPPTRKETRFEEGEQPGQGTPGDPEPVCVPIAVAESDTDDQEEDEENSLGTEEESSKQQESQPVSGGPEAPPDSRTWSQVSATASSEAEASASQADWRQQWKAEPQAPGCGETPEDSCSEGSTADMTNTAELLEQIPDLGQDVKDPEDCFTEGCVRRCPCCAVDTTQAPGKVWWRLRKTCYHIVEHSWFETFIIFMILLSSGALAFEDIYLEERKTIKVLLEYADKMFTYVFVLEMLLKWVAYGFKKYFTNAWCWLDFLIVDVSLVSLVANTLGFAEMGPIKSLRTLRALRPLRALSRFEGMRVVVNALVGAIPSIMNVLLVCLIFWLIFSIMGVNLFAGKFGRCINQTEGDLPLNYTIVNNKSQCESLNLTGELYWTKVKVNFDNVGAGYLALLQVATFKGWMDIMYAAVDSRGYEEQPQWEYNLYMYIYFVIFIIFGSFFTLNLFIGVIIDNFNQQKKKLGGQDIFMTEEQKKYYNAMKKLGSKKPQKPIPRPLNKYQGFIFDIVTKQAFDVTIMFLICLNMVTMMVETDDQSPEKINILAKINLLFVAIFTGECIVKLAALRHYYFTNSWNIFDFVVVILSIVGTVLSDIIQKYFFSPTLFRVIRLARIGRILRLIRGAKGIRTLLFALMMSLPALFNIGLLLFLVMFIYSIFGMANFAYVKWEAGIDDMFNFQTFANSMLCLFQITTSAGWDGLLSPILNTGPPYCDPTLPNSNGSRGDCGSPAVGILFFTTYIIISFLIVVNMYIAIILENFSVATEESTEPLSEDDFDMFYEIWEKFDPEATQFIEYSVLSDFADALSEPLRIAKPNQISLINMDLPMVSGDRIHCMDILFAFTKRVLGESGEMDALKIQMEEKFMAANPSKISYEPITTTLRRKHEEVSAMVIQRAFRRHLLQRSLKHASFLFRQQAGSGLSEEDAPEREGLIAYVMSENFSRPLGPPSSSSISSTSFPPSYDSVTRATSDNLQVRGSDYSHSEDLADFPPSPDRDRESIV

The assay addresses wild-type human cardiac sodium channel, hNav1.5 (Homo sapiens, UniProt Q14524). Nature of the assay: Late INa screening assay (automated whole cell patch clamp, PatchXpress). The note with it: compound at 1 μM; HEK293 cells expressing hNav1.5; late INa generated with 10 μM Tefluthrin (or 50 nM ATX II); read-out: LateINa_1 uM (percent block of late INa). Type of assay: cell-based. The method in brief:
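Late sodium current through wild-type human hNav1.5 stably expressed in HEK293 cells (no beta subunits) was recorded by automated whole-cell patch clamp on a PatchXpress 7000A at 24-27° C. Late INa was induced with 10 μM Tefluthrin or 50 nM ATX II. Cells were stepped from −120 mV to −20 mV for 250 ms at 0.1 Hz, and percent block was normalized to current in Na-free extracellular solution.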
Regarding `FC1(F)CCN(c2nnc3ccc(-c4ccc(OC(F)(F)F)cc4)cn23)CC1` [BHN-260, 3-(4,4-difluoropiperidin-1-yl)-6-[4-(trifluoromethoxy)phenyl][1,2,4]triazolo[4,3-a]pyridine], the inhibition at 1 µM is 38.5%.

For the molecule `N#Cc1cccc(COC(F)(F)c2nnc3ccc(-c4ccc(OC(F)(F)F)cc4)cn23)c1` [BHN-261, 3-[(difluoro{6-[4-(trifluoromethoxy)phenyl][1,2,4]triazolo[4,3-a]pyridin-3-yl}methoxy)methyl]benzonitrile], the inhibition at 1 µM was found to be 56.8%.

As to `COc1ccccc1SCC(C)COC(F)(F)c1nnc2ccc(-c3ccc(OC(F)(F)F)cc3)cn12` (stereo not drawn) [BHN-262, 3-(difluoro{3-[(2-methoxyphenyl)sulfanyl]-2-methylpropoxy}methyl)-6-[4-(trifluoromethoxy)phenyl][1,2,4]triazolo[4,3-a]pyridine], the inhibition at 1 µM stood at 47.8%.

Consider `O=C(NCC(F)(F)c1nnc2ccc(-c3ccc(OC(F)(F)F)cc3)cn12)Nc1ccccc1` [BHN-263, 1-(2,2-difluoro-2-{6-[4-(trifluoromethoxy)phenyl][1,2,4]triazolo[4,3-a]pyridin-3-yl}ethyl)-3-phenylurea], for which the inhibition at 1 µM was 22.6%.

Take `COc1ccc(N2CCN(CCOC(F)(F)c3nnc4ccc(-c5ccc(OC(F)(F)F)cc5)cn34)CC2)cc1` [BHN-264, 3-(difluoro{2-[4-(4-methoxyphenyl)piperazin-1-yl]ethoxy}methyl)-6-[4-(trifluoromethoxy)phenyl][1,2,4]triazolo[4,3-a]pyridine]: the inhibition at 1 µM turned out to be 54.3%.

Turning to `NC(=O)c1nnc2ccc(-c3ccc(OC(F)(F)F)cc3)cn12` [BHN-265, 6-[4-(trifluoromethoxy)phenyl][1,2,4]triazolo[4,3-a]pyridine-3-carboxamide], the inhibition at 1 µM amounted to 15.3%.

For the molecule `Cn1nc(C2CC2)cc1COC(F)(F)c1nnc2ccc(-c3ccc(OC(F)(F)F)cc3)cn12` [BHN-266, 3-{[(3-cyclopropyl-1-methyl-1H-pyrazol-5-yl)methoxy](difluoro)methyl}-6-[4-(trifluoromethoxy)phenyl][1,2,4]triazolo[4,3-a]pyridine], the inhibition at 1 µM is 50.2%.

With `OC(COCC(F)(F)c1nnc2ccc(-c3ccc(OC(F)(F)F)cc3)cn12)COc1ccccc1Cl` (stereo not drawn) [BHN-267, 1-(2-chlorophenoxy)-3-(2,2-difluoro-2-{6-[4-(trifluoromethoxy)phenyl][1,2,4]triazolo[4,3-a]pyridin-3-yl}ethoxy)propan-2-ol], the inhibition at 1 µM turned out to be 26.5%.

`Cc1cc(-c2ccc(OC(F)(F)F)cc2)cn2nnnc12` [BHN-268, 8-methyl-6-[4-(trifluoromethoxy)phenyl]tetrazolo[1,5-a]pyridine]: the inhibition at 1 µM was 43.2%.

As to `Cc1c(-c2ccc(OC(F)(F)F)cc2)ccc2nnnn12` [BHN-269, 5-methyl-6-[4-(trifluoromethoxy)phenyl]tetrazolo[1,5-a]pyridine], the inhibition at 1 µM stood at 44.7%.

For `Clc1ccc(Oc2ccc(-c3ccc4nnnn4n3)cc2)cc1` [BHN-270, 6-[4-(4-chlorophenoxy)phenyl]tetrazolo[1,5-b]pyridazine], the inhibition at 1 µM is 21.7%.

Turning to `FC(F)(F)c1nnc2ccc(-c3ccc(OC(F)(F)c4cccnc4)cc3)cn12` [BHN-271, 6-{4-[difluoro(pyridin-3-yl)methoxy]phenyl}-3-(trifluoromethyl)[1,2,4]triazolo[4,3-a]pyridine], the inhibition at 1 µM turned out to be 19.9%.

On to `FC(F)(F)c1nnc2ccc(-c3ccc(OC(F)(F)c4ccccc4)cc3)cn12` [BHN-272, 6-{4-[difluoro(phenyl)methoxy]phenyl}-3-(trifluoromethyl)[1,2,4]triazolo[4,3-a]pyridine], for which the inhibition at 1 µM was found to be 64.9%.

Take `Cc1ccccc1Oc1nnc2ccc(-c3ccc(OC(F)(F)F)cc3)cn12` [BHN-273, 3-(2-methylphenoxy)-6-[4-(trifluoromethoxy)phenyl][1,2,4]triazolo[4,3-a]pyridine]: the inhibition at 1 µM turned out to be 68.7%.

For `Cc1ccc(C)c(OCC(O)COCC(F)(F)c2nnc3ccc(-c4ccc(OC(F)(F)F)cc4)cn23)c1` (stereo not drawn) [BHN-274, 1-(2,2-difluoro-2-{6-[4-(trifluoromethoxy)phenyl][1,2,4]triazolo[4,3-a]pyridin-3-yl}ethoxy)-3-(2,5-dimethylphenoxy)propan-2-ol], the inhibition at 1 µM turned out to be 38.9%.

In the case of `FC(F)(F)c1ccc(-c2ccc3nnc(C(F)(F)OCC4CC4)n3c2)cn1` [BHN-275, 3-[(cyclopropylmethoxy)(difluoro)methyl]-6-[6-(trifluoromethyl)pyridin-3-yl][1,2,4]triazolo[4,3-a]pyridine], the inhibition at 1 µM came to 28.6%.

`N#Cc1cc(Cl)ccc1Nc1ccc(-c2ccc3nnc(C(F)(F)F)n3c2)cc1` [BHN-276, 5-chloro-2-({4-[3-(trifluoromethyl)[1,2,4]triazolo[4,3-a]pyridin-6-yl]phenyl}amino)benzonitrile]: the inhibition at 1 µM was 16.2%.

In the case of `COCc1c(-c2ccc(OC(F)(F)F)cc2)ccc2nnc(C(F)(F)F)n12` [BHN-277, 5-(methoxymethyl)-6-[4-(trifluoromethoxy)phenyl]-3-(trifluoromethyl)[1,2,4]triazolo[4,3-a]pyridine], the inhibition at 1 µM amounted to 38%.

`CN(c1ccccc1)c1ccc(-c2ccc3nnc(C(F)(F)F)n3c2)cc1` [BHN-278, N-methyl-N-phenyl-4-[3-(trifluoromethyl)[1,2,4]triazolo[4,3-a]pyridin-6-yl]aniline]: the inhibition at 1 µM stood at 54.2%.

With `N#CCOCc1c(-c2ccc(OC(F)(F)F)cc2)ccc2nnc(C(F)(F)F)n12` [BHN-279, ({6-[4-(trifluoromethoxy)phenyl]-3-(trifluoromethyl)[1,2,4]triazolo[4,3-a]pyridin-5-yl}methoxy)acetonitrile], the inhibition at 1 µM was 19.1%.

For `N#Cc1ccc(C(F)(F)Oc2ccc(-c3ccc4nnc(C(F)(F)F)n4c3)cc2)cc1` [BHN-280, 4-(difluoro{4-[3-(trifluoromethyl)[1,2,4]triazolo[4,3-a]pyridin-6-yl]phenoxy}methyl)benzonitrile], the inhibition at 1 µM is 63.7%.

Take `FC(F)(F)Oc1ccc(-c2ccc3nnc(C(F)(F)OCc4cccc5ncccc45)n3c2)cc1` [BHN-281, 5-[(difluoro{6-[4-(trifluoromethoxy)phenyl][1,2,4]triazolo[4,3-a]pyridin-3-yl}methoxy)methyl]quinoline]: the inhibition at 1 µM is 53.9%.

Regarding `CC(OC(F)(F)c1nnc2ccc(-c3ccc(OC(F)(F)F)cc3)cn12)c1cnc2ccccc2c1` (stereo not drawn) [BHN-282, 3-[1-(difluoro{6-[4-(trifluoromethoxy)phenyl][1,2,4]triazolo[4,3-a]pyridin-3-yl}methoxy)ethyl]quinoline], the inhibition at 1 µM worked out at 62.7%.

As for `FC(F)(F)c1nnc2ccc(-c3ccc(Nc4ccc(Cl)cc4)cc3)cn12` [BHN-283, 4-chloro-N-{4-[3-(trifluoromethyl)[1,2,4]triazolo[4,3-a]pyridin-6-yl]phenyl}aniline], the inhibition at 1 µM was determined as 27.2%.

Regarding `Fc1ccc(Nc2ccc(-c3ccc4nnc(C(F)(F)F)n4c3)cc2)cc1` [BHN-284, 4-fluoro-N-{4-[3-(trifluoromethyl)[1,2,4]triazolo[4,3-a]pyridin-6-yl]phenyl}aniline], the inhibition at 1 µM was determined as 31.4%.

On to `Cc1cccc(C)c1OCCOC(F)(F)c1nnc2ccc(-c3ccc(OC(F)(F)F)cc3)cn12` [BHN-285, 3-{[2-(2,6-dimethylphenoxy)ethoxy](difluoro)methyl}-6-[4-(trifluoromethoxy)phenyl][1,2,4]triazolo[4,3-a]pyridine], for which the inhibition at 1 µM stood at 68%.

For the molecule `FC(F)(F)Oc1ccc(-c2ccc3nnc(C(F)(F)OCc4cnn(-c5ccccc5)c4)n3c2)cc1` [BHN-287, 3-{difluoro[(1-phenyl-1H-pyrazol-4-yl)methoxy]methyl}-6-[4-(trifluoromethoxy)phenyl][1,2,4]triazolo[4,3-a]pyridine], the inhibition at 1 µM was 47.1%.

`FC(F)(F)Oc1ccc(-c2ccc3nnc(C(F)(F)OCc4coc(-c5ccc(C(F)(F)F)cc5)n4)n3c2)cc1` [BHN-288, 3-[difluoro({2-[4-(trifluoromethyl)phenyl]-1,3-oxazol-4-yl}methoxy)methyl]-6-[4-(trifluoromethoxy)phenyl][1,2,4]triazolo[4,3-a]pyridine]: the inhibition at 1 µM is 39.2%.

On to `Cc1cc(COC(F)(F)c2nnc3ccc(-c4ccc(OC(F)(F)F)cc4)cn23)c2ccccc2n1` [BHN-289, 4-[(difluoro{6-[4-(trifluoromethoxy)phenyl][1,2,4]triazolo[4,3-a]pyridin-3-yl}methoxy)methyl]-2-methylquinoline], for which the inhibition at 1 µM was found to be 47.9%.

`FC(F)(F)Oc1ccc(-c2ccc3nnc(C(F)(F)OCc4cc(C(F)(F)F)nc5ccccc45)n3c2)cc1` [BHN-290, 4-[(difluoro{6-[4-(trifluoromethoxy)phenyl][1,2,4]triazolo[4,3-a]pyridin-3-yl}methoxy)methyl]-2-(trifluoromethyl)quinoline]: the inhibition at 1 µM worked out at 34.6%.

`FC(F)(F)Oc1ccc(-c2ccc3nnc(C(F)(F)OCc4ccc5nccnc5c4)n3c2)cc1` [BHN-291, 6-[(difluoro{6-[4-(trifluoromethoxy)phenyl][1,2,4]triazolo[4,3-a]pyridin-3-yl}methoxy)methyl]quinoxaline]: the inhibition at 1 µM came out at 47%.

With `O=[N+]([O-])c1ccc(-c2ccc3nnc(C(F)(F)F)n3c2)c(Cl)c1` [BHN-292, 6-(2-chloro-4-nitrophenyl)-3-(trifluoromethyl)[1,2,4]triazolo[4,3-a]pyridine], the inhibition at 1 µM came to 26%.

In the case of `CC#CCOC(F)(F)c1nnc2ccc(-c3ccc(OC(F)(F)F)cc3)cn12` [BHN-293, 3-[(but-2-yn-1-yloxy)(difluoro)methyl]-6-[4-(trifluoromethoxy)phenyl][1,2,4]triazolo[4,3-a]pyridine], the inhibition at 1 µM came to 80.6%.
